Experimental data: ChEMBL document CHEMBL1201862, “PubChem BioAssay data set” (2004)
Structures can show the parent of a compound that is named as a salt.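 Values below derive from 48-hour exposures of cells grown in 96-well plates, with endpoints linearly interpolated between the two concentrations bracketing the appropriate inhibition level. GI50 marks 50% less growth.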 The source made the active and inactive calls. Cut-off read from the data, not from the text of the source: active = GI50 up to about 1.1 µM and inactive = higher. Peptide text beside a SMILES is read from it. * marks the point of attachment. Cbz = O=C(OCc1ccccc1)*; NHNH2 = NN*

Experiments:
Assay in all cases: inhibition of tumour cell growth, NCI panel, 48 h
LOX IMVI = test system: LOX IMVI
RPMI-8226 = test system: RPMI-8226
SNB-19 = test system: SNB-19
ACHN = test system: ACHN
SK-OV-3 = test system: SK-OV-3
HCT-116 = test system: HCT-116
MOLT-4 = test system: MOLT-4
U-251 = test system: U-251
EKVX = test system: EKVX
A549 = test system: A549
SNB-75 = test system: SNB-75
CCRF-CEM = test system: CCRF-CEM
HCC 2998 = test system: HCC 2998
K562 = test system: K562
COLO 205 = test system: COLO 205
RXF 393 = test system: RXF 393
SF-295 = test system: SF-295
UO-31 = test system: UO-31
TK-10 = test system: TK-10
SF-539 = test system: SF-539

Measured: GI50

O=C1OCC2OC(=O)c3cc(O)c(O)c(O)c3-c3c(O)c(O)c(O)c4c3C(=O)OC(C2OC(=O)c2cc(O)c(O)c(O)c2-c2c1cc(O)c(O)c2O)C1OC(=O)C2C4=C(O)C(=O)C23Oc2cc(O)c4c(c2[C@H]13)O[C@H](c1ccc(O)c(O)c1)[C@@H](O)C4 (stereo partly specified)
inactive: LOX IMVI 14.8 µM | RPMI-8226 24.5 µM | SNB-19 41.4 µM | ACHN 23 µM | SK-OV-3 44.1 µM | HCT-116 17.3 µM | MOLT-4 22.6 µM | U-251 16.6 µM | EKVX 12.7 µM | A549 19.1 µM | SNB-75 28.4 µM | CCRF-CEM 19.4 µM | HCC 2998 25.2 µM | K562 26 µM | COLO 205 19.2 µM | RXF 393 16.8 µM | SF-295 19.8 µM | UO-31 17.8 µM

CCOC(=O)C1=C(C)N(NC(=O)Nc2ccccc2)C2(N)N(NC(=O)Nc3ccccc3)C(C)=C(C(=O)OCC)C12C#N (stereo unspecified)
inactive: LOX IMVI 18.9 µM | RPMI-8226 22 µM | ACHN 21 µM | SK-OV-3 25.5 µM | HCT-116 17.5 µM | MOLT-4 21.6 µM | U-251 18.4 µM | A549 26.5 µM | SNB-75 18.9 µM | CCRF-CEM 28.2 µM | HCC 2998 19.2 µM | K562 20 µM | COLO 205 17.7 µM | RXF 393 13.6 µM | TK-10 25.2 µM | UO-31 > 100 µM

COC(=O)c1ccc(C(=O)OC)c2nc3cc(Cl)ccc3nc12
inactive: LOX IMVI > 100 µM | RPMI-8226 > 100 µM | SF-539 > 100 µM | SNB-19 > 100 µM | ACHN > 100 µM | SK-OV-3 > 100 µM | HCT-116 > 100 µM | MOLT-4 > 100 µM | U-251 > 100 µM | EKVX > 100 µM | A549 > 100 µM | SNB-75 > 100 µM | CCRF-CEM > 100 µM | HCC 2998 > 100 µM | K562 > 100 µM | COLO 205 > 100 µM | SF-295 > 100 µM | TK-10 > 100 µM | UO-31 > 100 µM

[N-]=[N+]=NC12CC3C4CC5CC3C(C1)C(C5)C4C2
inactive: LOX IMVI > 100 µM | RPMI-8226 > 100 µM | SF-539 > 100 µM | SNB-19 > 100 µM | ACHN > 100 µM | SK-OV-3 > 100 µM | HCT-116 > 100 µM | MOLT-4 > 100 µM | U-251 > 100 µM | EKVX > 100 µM | A549 > 100 µM | SNB-75 > 100 µM | CCRF-CEM > 100 µM | HCC 2998 > 100 µM | K562 > 100 µM | COLO 205 > 100 µM | SF-295 > 100 µM | TK-10 > 100 µM | UO-31 > 100 µM

COc1ccc(Cc2nccc3cc(OC)c(OC)cc23)cc1OC [PAPAVERINE HYDROCHLORIDE]
inactive: LOX IMVI 60.8 µM | RPMI-8226 36.7 µM | SF-539 76 µM | SNB-19 70.1 µM | ACHN 63 µM | SK-OV-3 > 100 µM | HCT-116 39.3 µM | MOLT-4 47.8 µM | U-251 > 100 µM | EKVX 45.5 µM | A549 > 100 µM | SNB-75 > 100 µM | CCRF-CEM > 100 µM | HCC 2998 92.9 µM | K562 37.3 µM | COLO 205 > 100 µM | SF-295 84.9 µM | TK-10 > 100 µM | UO-31 78.7 µM

COC(=O)CC(NC(=O)OCc1ccccc1)C(=O)NC(CC(=O)OC)C(=O)NC(CC(=O)OC)C(=O)NC(CC(=O)OC)C(=O)NC(CC(=O)OC)C(=O)NC(CC(=O)OC)C(=O)NN (stereo unspecified) (Cbz-D(OMe)D(OMe)D(OMe)D(OMe)D(OMe)D(OMe)-NHNH2; configuration not given here)
inactive: LOX IMVI > 100 µM | RPMI-8226 > 100 µM | SF-539 > 100 µM | SNB-19 > 100 µM | ACHN > 100 µM | SK-OV-3 > 100 µM | HCT-116 > 100 µM | MOLT-4 > 100 µM | U-251 > 100 µM | SNB-75 > 100 µM | CCRF-CEM > 100 µM | HCC 2998 > 100 µM | K562 > 100 µM | COLO 205 > 100 µM | SF-295 > 100 µM | TK-10 > 100 µM | UO-31 > 100 µM

COC(=O)[C@@H]1Cc2ccc(OC)c(c2)OCCC(=O)N1
inactive: RPMI-8226 > 100 µM | SNB-19 > 100 µM | ACHN > 100 µM | SK-OV-3 > 100 µM | HCT-116 > 100 µM | MOLT-4 > 100 µM | U-251 > 100 µM | EKVX > 100 µM | A549 > 100 µM | SNB-75 > 100 µM | CCRF-CEM > 100 µM | HCC 2998 > 100 µM | K562 > 100 µM | COLO 205 > 100 µM | RXF 393 > 100 µM | SF-295 > 100 µM | TK-10 > 100 µM | UO-31 > 100 µM
